In ChEMBL document CHEMBL1134153, “Novel bicyclic lactam inhibitors of thrombin: potency and selectivity optimization through P1 residues” (Bioorg Med Chem Lett, 2001):

How the values were obtained:
Prothrombin = Prothrombin (Rattus norvegicus, UniProt P18292); experiment: In vitro ability to inhibit the amidolytic activity of thrombin
Rattus norvegicus [1] = experiment: Tested for in vivo activated partial thromboplastin time in rat arterial thrombosis model; type: functional
Rattus norvegicus [2] = experiment: Tested for in vivo thrombin time in rat arterial thrombosis model; type: functional
Rattus norvegicus [3] = experiment: Tested for in vivo mean occlusion time in rat arterial thrombosis model; type: functional

## N[C@H]1CC[C@H](CNC(=O)C2CC[C@H]3CN(S(=O)(=O)Cc4ccccc4)CC(=O)N23)CC1 (some centres undefined)
Prothrombin
  Ki: 100 nM

## Cc1cc(C(=N)N)ccc1CNC(=O)[C@@H]1CC[C@H]2CN(S(=O)(=O)Cc3ccccc3)CC(=O)N21
Rattus norvegicus [1]
  APTT: 0.9 min
Rattus norvegicus [2]
  TT: 6.55 min
Rattus norvegicus [3]
  MOT: 46 min
Prothrombin
  Ki: 7 nM

## N/C(=N/O)c1ccc(CNC(=O)[C@@H]2CC[C@H]3CN(S(=O)(=O)Cc4ccccc4)CC(=O)N32)cc1
Prothrombin
  Ki: > 10000 nM

## N=C(N)NCCCCNC(=O)C1CC[C@H]2CN(C(=O)CCc3ccccc3)CC(=O)N12 (some centres undefined)
Prothrombin
  Ki: 900 nM

## O=C(NC[C@H]1CC[C@H](NO)CC1)[C@@H]1CC[C@H]2CN(S(=O)(=O)Cc3ccccc3)CC(=O)N21
Prothrombin
  Ki: 1100 nM

## N=C(N)N1CCC(CNC(=O)[C@@H]2CC[C@H]3CN(S(=O)(=O)Cc4ccccc4)CC(=O)N32)CC1
Prothrombin
  Ki: 78 nM

## N=C(N)c1ccc(CNC(=O)[C@@H]2CC[C@H]3CN(S(=O)(=O)Cc4ccccc4)CC(=O)N32)cc1
Rattus norvegicus [1]
  APTT: 0.967 min
Rattus norvegicus [2]
  TT: 7.58 min
Rattus norvegicus [3]
  MOT: >60 min
Prothrombin
  Ki: 8 nM

## N=C(N)N1CCC(CNC(=O)[C@@H]2CC[C@H]3CN(C(=O)CCc4ccccc4)CC(=O)N32)CC1
Prothrombin
  Ki: 180 nM

## N/C(=N\O)N1CCC(CNC(=O)[C@@H]2CC[C@H]3CN(S(=O)(=O)Cc4ccccc4)CC(=O)N32)CC1
Rattus norvegicus [1]
  APTT: 0.633 min
Rattus norvegicus [2]
  TT: 3.85 min
Rattus norvegicus [3]
  MOT: 48 min

## N=C(N)NCCC[C@H](NC(=O)[C@@H]1CC[C@H]2CN(C(=O)CCc3ccccc3)CC(=O)N21)C(=O)c1nccs1
Prothrombin
  Ki: 0.6 nM

## O=C(NCc1ccc2nc[nH]c2c1)[C@@H]1CC[C@H]2CN(S(=O)(=O)Cc3ccccc3)CC(=O)N21
Prothrombin
  Ki: 1000 nM
